Source: patent US20040063643A1, “Bombesin antagonists” (Pfizer Inc., priority 2002, published 2004)

How the values were obtained:
[1] = target: T1, human bombesin BB1 receptors (Homo sapiens, UniProt P28336); experiment: Bombesin BB1 receptor binding assay, [125I][6-14]Bombesin, CHO cell membranes; details: membranes from CHO cells expressing human BB1
T1 construct: expressed in transfected cells; host or cells: CHO cells
Experimental: The compounds of the present invention are a potent class of bombesin antagonists. Bombesin antagonism may be measured using the following binding assay using membranes from CHO cells expressing the human bombesin BB1 receptors.
Cells are maintained in Ham's F12 medium (Life Technologies Ltd, Cat No. 31765-027) supplemented with 10% FBS (Life Tech. Ltd., 10109-155) and 2 mM glutamine (or Glutamax in media). Cells are routinely passaged once weekly (split 1:5, approximate seeding density=1-4 million per […] flask), and fed every 2 days with fresh medium. Cells are frozen down (in Hams F12 containing 5% DMSO) 4-7 days after passaging and stored at −70° C. until required for use in binding experiments.
Frozen cells rapidly thawed and diluted with excess medium (each aliquot made up to 40 ml).
Cells harvested by centrifuging at 3000 g for 4 min at 21° C.
Cells resuspended in known volume of assay buffer, and cell count performed.
Membranes prepared by polytronning (setting 5, 10 secs). […]
(§1) For each assay plate, total (1% DMSO) and non-specific (1 μM, 1% DMSO), binding will be measured for the ligand on the receptor. Specific binding of the radioactive ligand to the receptor can thus be calculated to which specific binding of the radioactive ligand in the presence of a competing compound can be calculated and expressed as percentage inhibition of radioactive ligand binding.

BB2 = BB2 (Homo sapiens, UniProt P30550); experiment: Bombesin BB2 receptor binding assay
Sequence of BB2 (P30550 whole entry): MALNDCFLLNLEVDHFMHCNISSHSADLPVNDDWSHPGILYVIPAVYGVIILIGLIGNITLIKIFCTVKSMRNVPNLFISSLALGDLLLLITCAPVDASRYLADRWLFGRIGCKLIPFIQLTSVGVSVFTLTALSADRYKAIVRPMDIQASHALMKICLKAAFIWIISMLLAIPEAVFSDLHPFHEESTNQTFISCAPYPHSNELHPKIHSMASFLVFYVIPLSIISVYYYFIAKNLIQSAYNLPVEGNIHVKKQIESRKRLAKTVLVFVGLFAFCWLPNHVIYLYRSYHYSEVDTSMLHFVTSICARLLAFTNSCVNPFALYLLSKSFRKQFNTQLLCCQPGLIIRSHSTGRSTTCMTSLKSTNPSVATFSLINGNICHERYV
Experimental: Drug dilutions are performed using the Tecan Genesis/Miniprep handling stations. Assays are set up as follows
25 μl test compound/total/NSB
200 μl cell memb preparation
Assay additions using deep well Multidrop.
Non-specific binding is defined by 1 μM Bombesin 1% DMSO (final concentration).
1. Add membranes to start incubation. Vortex and incubate at 21° C. GRP assay=90 min; NMB assay=60 min.
2. Terminate reactions by rapid filtration onto GF\C filters or GF\C Unifilter plates presoaked in 0.2% PEI for >1 hour) using the appropriate Brandel cell harvester.
3. Wash with ice-cold HEPES HCl (50 mM, pH 7.4 at 21° C.).
Filter mats 6×1 ml total wash volume
Unifilter plates 2×1 ml total wash volume
4. Unifilters are dried at 50° C. for 60 minutes. Add 50 μl Microscint-0, Seal plates with Top-Seal A and count using TopCount NXT.
as §1

T1 sequence (P28336 whole entry): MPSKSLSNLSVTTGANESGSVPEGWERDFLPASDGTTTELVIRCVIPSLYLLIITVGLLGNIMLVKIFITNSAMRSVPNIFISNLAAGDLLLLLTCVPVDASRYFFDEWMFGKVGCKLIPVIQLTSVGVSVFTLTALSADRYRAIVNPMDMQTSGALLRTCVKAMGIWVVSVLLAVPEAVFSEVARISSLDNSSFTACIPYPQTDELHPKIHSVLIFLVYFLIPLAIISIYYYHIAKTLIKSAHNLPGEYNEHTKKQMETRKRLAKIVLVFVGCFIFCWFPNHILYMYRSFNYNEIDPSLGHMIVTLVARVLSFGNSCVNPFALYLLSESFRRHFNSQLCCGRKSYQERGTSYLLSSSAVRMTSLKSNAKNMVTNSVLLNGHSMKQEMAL

SMILES | melting point [°C] | Ki [1] [nM] | Ki (BB2) [µM]
CC(C)c1cccc(C(C)C)c1NC(=O)N(Cc1ccccc1)CC1(c2nnnn2C)CCCCC1 [Example 180, 1-Benzyl-3-(2,6-diisopropyl-phenyl)-1-[1-(1-methyl-1H-tetrazol-5-yl)-cyclohexylmethyl]-urea] | 150 to 152 | – | –
CC(C)c1cccc(C(C)C)c1NC(=O)N(Cc1ccccc1)CC1(c2ncccn2)CCCCC1 [Example 181, 1-Benzyl-3-(2,6-diisopropyl-phenyl)-1-(1-pyrimidin-2-yl-cyclohexylmethyl)-urea] | 112.5 to 113.5 | – | –
O=C(NCc1cccc(Cl)c1Cl)N(Cc1ccc(O)cc1)CC1(c2ccccn2)CCCCC1 [Example 1, 3-(2,3-Dichloro-benzyl)-1-(4-hydroxy-benzyl)-1-(1-pyridin-2-yl-cyclohexylmethyl)-urea] | – | 82 | 3.59
Cc1cccc(CNC(=O)N(CC2CC2)CC2(c3ccccn3)CCCCC2)c1C [Example 184, 1-Cyclopropylmethyl-3-(2,3-dimethyl-benzyl)-1-(1-pyridin-2-yl-cyclohexylmethyl)-urea] | 102 to 103 | – | –
